Source: US20080187492A1, “Drosophila Models For Diseases Affecting Learning and Memory” (priority 2004, published 2008)

Key:
Assay type in all cases: in vivo, Drosophila melanogaster
[1] = system: Rescue (dFMR1-3+wild type rescue fragment) flies; test: Naive courtship behavior (courtship index toward virgin female), Rescue flies; details: for naive courtship: MPEP 20 μg/ml, LY341495 400 nM in food
Excerpt: Learning and memory (cognitive abilities) can be examined in Drosophila by utilizing several available learning and memory paradigms. The most popular is a classical conditioning paradigm in which the flies learn to associate electric shocks with olfactory cues (Dudia et al, 1976; Davis, 1993; Tully, 1994). An alternative paradigm to study learning and memory in Drosophila is called conditioned courtship, wherein a male fly learns to modify his courtship behavior after experience with an unreceptive female; it is a multi-sensory paradigm involving associations from more then one sensory input (Siegel and Hall, 1979; for review see Hall, 1994). It is a more complex associative learning paradigm and was utilized to assay learning and memory in this article to elucidate the role of dFMR1 in learning and memory (Tompkins et al, 1980; Tompkins et al, 1982; Tompkins et al, 1983; Tompkins et al, 1984; Ackerman and Siegel, 1986). Courting male flies perform a characteristic sequence of behaviors: orienting toward and following the female, tapping her with his forelegs, vibrating one or both wings, licking her genitalia, and attempting copulation (Sturtevant, 1915; Bastock and Manning, 1955; Bastock, 1956). These behaviors are repeated with some variation until successful copulation occurs. Virgin females will generally respond by mating; however, recently mated females will be unreceptive and will not allow copulation to occur (Spieth, 1974), they display different behaviors (Bastock and Manning, 1955; Connolly and Cook, 1973) and have an altered, although somewhat overlapping, pheromonal profile (Cobb and Ferveur, 1996). The naive male will find a previously mated female to have a pheromonal repertoire that is less provocative then that of a virgin female target. A naive male paired with a mated female will initially court her, but his courtship activity soon decreases; after 1 hour of experience with the mated female, his courtship when subsequently paired with a virgin female remains depressed for 2-3 hours (Siegel and Hall, 1979). This effect is not a general suppression of all courtship activity since a male's tendency to court an immature male is not suppressed (Gailey et al, 1984). […] These behaviors are quantified as a courtship index (CI) which is defined as the percentage of time a male fly spends performing any of the six courtship steps toward a target female in a ten minute test period. A decrease in CI after training with a previously mated female is indicative of behavioral plasticity in the form of learning or memory.
Since we use female targets that are not etherized (therefore they are freely moving), and the w118 and dfmr1-3 flies may have slightly impaired visual acuity due to lack of eye pigmentation, and since visual inputs affect courtship behavior, all subsequent experiments were done utilizing only the genotypes Rescue: dfmr1-3+wild type rescue fragment, and FS: dfmr1-3+frame shifted rescue fragment. Both of these genotypes have more pigmentation and similar levels of eye pigmentation to each other. For FIGS. 4 and 5, a high concentration of MPEP (1,000 μg/ml) was used. For the remainder of the experiments the food was either control (CT) or exactly the same control food containing the appropriate concentration of MPEP (M). The position of the CT and the M are indicative of the point at which the group was on the particular food. The first letter indicates the food type that the larvae grew up on, and the second letter denotes the food type that the adult flies were placed on within four hours of eclosion, and for the four following days, until the day before testing when they were placed on fresh food.
In order to determine if MPEP can get into the Drosophila central nervous system (CNS) through feeding behavior, we mixed MPEP into the food at a concentration of 1,000 μg/ml ([…]). Males were raised on CT food and then placed on either CT or M food. […]

[2] = system: FS flies lacking dfmr1 activity; test: Short-term memory (60 mins) with mated female targets, FS flies; details: for short-term memory, mated female target: 86 μM MPEP, 400 nM LY341495, 573 μM MPPG, 348 μM MTPG; for memory at 60 minutes post training, mated female target: 5 day old, 8.6 mM MPEP, 400 nM LY341495
Method: (§1) Effects of drug treatment on short-term memory (60 mins) in flies lacking dfmr1 activity with mated female targets. Short-term (60 min.) memory was measured in Rescue and FS flies that were either fed control food or underwent various drug treatments as described below. Short-term memory was measured by placing a trained male in a holding chamber for 60 minutes (after being trained for one hour with a previously mated female), then subsequently placing him in a testing chamber with a mated female target for a ten-minute courtship interval (C.I.). This C.I. was compared to the C.I. obtained for naïve courtship of a previously mated female, i.e., C.I. during the first 10 minutes of the training session with a previously mated female. Additionally, for reference the C.I. during the last 10 minutes of the training period was also determined. Numbers of flies are indicated above each bar for all groups. The levels of significance are indicated as follows; *=p<0.05; **=p<0.005; ***=p<0.0001.
(§2) Restoration of short-term memory with mGluR antagonists. To establish that the failure to observe memory was not due to a problem with recognizing or processing the appropriate cues from the virgin female target, we used a modified version of the conditioned courtship paradigm where the male is paired with a mated female target subsequent to training (Kane et al., 1997; Joiner and Griffith, 1997; Joiner and Griffith, 1999; Kamashev et al., 1999). Again, with pharmacologic treatment it is necessary to utilize more then one compound to confirm the specificity of the target, so in this case we used four mGluR antagonists. […] It is also important to note that the robust deficit in synaptic plasticity in FS flies, with regard to memory, is a critical extension of the previous models of Fragile X syndrome in model organisms, since this is one of the most prominent aspects of the human disorder. Furthermore, we have shown that antagonism of the mGluRs can restore synaptic plasticity in the Drosophila model of Fragile X syndrome.

Rescue flies = test: Short-term memory (60 mins) with mated female targets, Rescue flies; details: for short-term memory, mated female target: 86 μM MPEP, 400 nM LY341495, 573 μM MPPG, 348 μM MTPG; for memory at 60 minutes post training, mated female target: 5 day old, 8.6 mM MPEP, 400 nM LY341495
Method: as §1, §2

Compound | naive courtship activity ([1]; 5 day old adults, 573 mM MPPG or 348 μM MTPG, p<0.0001 for both) | short-term memory, mated female target [2] | memory at 60 minutes post training, mated female target [2] | short-term memory, mated female target (Rescue flies) | memory at 60 minutes post training, mated female target (Rescue flies) | naive courtship ([1]; 5 day old) | naive courtship activity ([1]; 5 day old, MPEP 200 μg/ml (86.6 μM) in adulthood only (CT-M), p<0.0001) | naive courtship activity ([1]; 5 day old, MPEP 200 μg/ml (86.6 μM) in development, with or without adulthood (M-M, M-CT)) | naive courtship behavior ([1]; 5 day old, MPEP 1,000 μg/ml (433.0 μM) in food in adulthood (CT-M))
CC(N)(C(=O)O)c1ccc(-c2nnn[nH]2)cc1 (racemic) [MTPG, (RS)-α-methyl-4-tetrazolylphenylglycine] | significant decrease in courtship activity | demonstrated restoration of short-term memory | demonstrate memory at 60 minutes post training | demonstrated intact short-term memory | demonstrate memory at 60 minutes post training | – | – | – | –
N[C@](CC1c2ccccc2Oc2ccccc21)(C(=O)O)[C@H]1C[C@@H]1C(=O)O [LY341495, (2S)-2-amino-2-[(1S,2S)-2-carboxycycloprop-1-yl]-3-(xanth-9-yl) propionic acid] | – | demonstrated restoration of short-term memory | demonstrate memory at 60 minutes post training | demonstrated intact short-term memory | demonstrate memory at 60 minutes post training | suppressed naive courtship | – | – | –
Cc1cccc(C#Cc2ccccc2)n1 [MPEP, 2-methyl-6-(phenylethynyl)pyridine] | – | demonstrated restoration of short-term memory | demonstrate memory at 60 minutes post training | demonstrated intact short-term memory | demonstrate memory at 60 minutes post training | suppressed naive courtship | depressed relative to CT-CT Rescue flies | courted as vigorously as CT-CT Rescues flies | reduced
